In US11104690B2, “Indazole derivatives useful as inhibitors of diacylglyceride O-acyltransferase 2” (Merck Sharp & Dohme Corp., priority 2016, dated 2021):

These compounds were tested against Human DGAT2 (Homo sapiens (Human), UniProt Q96PD7) (assay: DGAT2 Enzymatic Activity Assay (triolein formation, LC/MS/MS)). Settings: hDGAT2 Sf-9 membrane prep; 25 μM diolein, 10 μM oleoyl-CoA; room temperature.
Assay type: biochemical
Procedure, shortened: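 Triolein product, measured by LC/MS/MS as a ratio to internal standard, gave % inhibition and 4-parameter IC50. Reaction: 25 μM diolein, 10 μM oleoyl-CoA, 10 ng/μL hDGAT2 Sf-9 membrane, 100 mM Tris.Cl pH 7.0, 20 mM MgCl2, 5% ethanol, room temperature.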

Chain of Human DGAT2 (Q96PD7 whole entry): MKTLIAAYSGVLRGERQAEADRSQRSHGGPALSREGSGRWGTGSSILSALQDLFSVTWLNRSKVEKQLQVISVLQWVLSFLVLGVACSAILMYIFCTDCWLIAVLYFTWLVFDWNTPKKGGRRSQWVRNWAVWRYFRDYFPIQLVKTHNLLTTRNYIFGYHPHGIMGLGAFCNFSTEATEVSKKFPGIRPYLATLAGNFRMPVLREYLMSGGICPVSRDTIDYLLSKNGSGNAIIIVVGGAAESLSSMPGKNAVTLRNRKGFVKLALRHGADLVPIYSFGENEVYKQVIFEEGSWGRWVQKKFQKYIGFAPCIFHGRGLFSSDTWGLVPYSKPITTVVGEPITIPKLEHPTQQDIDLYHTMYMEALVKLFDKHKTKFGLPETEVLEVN

SMILES	IC50 [nM]
O=C(NC(CO)(CO)CO)c1ccc2c(-c3ccccc3Cl)nn(-c3ccc(F)cc3)c2c1 [Example 85, 3-(2-chlorophenyl)-1-(4-fluorophenyl)-N-[2-hydroxy-1,1-bis(hydroxymethyl)ethyl]-1H-indazole-6-carboxamide]	432
O=C(NC1(CO)CCC1)c1ccc2c(-c3ccccc3Cl)nn(-c3ccc(F)cc3)c2c1 [Example 88, 3-(2-chlorophenyl)-1-(4-fluorophenyl)-N-[1-(hydroxymethyl)cyclobutyl]-1H-indazole-6-carboxamide]	15
CSCC[C@@H](CO)NC(=O)c1ccc2c(-c3ccccc3Cl)nn(-c3ccc(F)cc3)c2c1 [Example 93, 3-(2-chlorophenyl)-1-(4-fluorophenyl)-N-[(1S)-1-(hydroxymethyl)-3-(methylsulfanyl)propyl]-1H-indazole-6-carboxamide]	503
CC(C)[C@H](NC(=O)c1ccc2c(-c3ccccc3Cl)nn(-c3ccc(F)cc3)c2c1)C(N)=O [Example 95, N-[(1S)-1-carbamoyl-2-methylpropyl]-3-(2-chlorophenyl)-1-(4-fluorophenyl)-1H-indazole-6-carboxamide]	606
CC(C)(C)[C@@H](CO)NC(=O)c1ccc2c(-c3ccccc3Cl)nn(-c3ccc(F)cc3)c2c1 [Example 99, 3-(2-chlorophenyl)-1-(4-fluorophenyl)-N-[(1S)-1-(hydroxymethyl)-2,2-dimethylpropyl]-1H-indazole-6-carboxamide]	6.1
CC(C)(C)OC(=O)N1CC[C@H](NC(=O)c2ccc3c(-c4ccccc4Cl)nn(-c4ccc(F)cc4)c3c2)C1 [Example 100, tert-butyl (3S)-3-({[3-(2-chlorophenyl)-1-(4-fluorophenyl)-1H-indazol-6-yl]carbonyl}amino)pyrrolidine-1-carboxylate]	12
CC(C)(C)OC(=O)N1CC[C@@H](NC(=O)c2ccc3c(-c4ccccc4Cl)nn(-c4ccc(F)cc4)c3c2)C1 [Example 101, tert-butyl (3R)-3-({[3-(2-chlorophenyl)-1-(4-fluorophenyl)-1H-indazol-6-yl]carbonyl}amino)pyrrolidine-1-carboxylate]	136
CC[C@H](C)[C@@H](CO)NC(=O)c1ccc2c(-c3ccccc3Cl)nn(-c3ccc(F)cc3)c2c1 [Example 103, 3-(2-chlorophenyl)-1-(4-fluorophenyl)-N-[(1S,2S)-1-(hydroxymethyl)-2-methylbutyl]-1H-indazole-6-carboxamide]	31

Continued, values first:

IC50 [nM]	SMILES
505	O=C(NC1CCOCC1)c1ccc2c(-c3ccccc3Cl)nn(-c3ccc(F)cc3)c2c1 [Example 86, 3-(2-chlorophenyl)-1-(4-fluorophenyl)-N-(tetrahydro-2H-pyran-4-yl)-1H-indazole-6-carboxamide]
198	O=C(N[C@@H]1C[C@H](CO)[C@@H](O)[C@H]1O)c1ccc2c(-c3ccccc3Cl)nn(-c3ccc(F)cc3)c2c1 [Example 87, 3-(2-chlorophenyl)-N-[(1R,2S,3R,4R)-2,3-dihydroxy-4-(hydroxymethyl)cyclopentyl]-1-(4-fluorophenyl)-1H-indazole-6-carboxamide]
772	O=C(N[C@@H]1CCC[C@H]1O)c1ccc2c(-c3ccccc3Cl)nn(-c3ccc(F)cc3)c2c1 [Example 94, 3-(2-chlorophenyl)-1-(4-fluorophenyl)-N-[(1R,2R)-2-hydroxycyclopentyl]-1H-indazole-6-carboxamide]
43	O=C(N[C@H]1CCC[C@H]1O)c1ccc2c(-c3ccccc3Cl)nn(-c3ccc(F)cc3)c2c1 [Example 96, 3-(2-chlorophenyl)-1-(4-fluorophenyl)-N-[(1S,2R)-2-hydroxycyclopentyl]-1H-indazole-6-carboxamide]
155	O=C(N[C@H]1CCC[C@@H]1O)c1ccc2c(-c3ccccc3Cl)nn(-c3ccc(F)cc3)c2c1 [Example 97, 3-(2-chlorophenyl)-1-(4-fluorophenyl)-N-[(1S,2S)-2-hydroxycyclopentyl]-1H-indazole-6-carboxamide]
